# Entries after “also recorded” stand apart in the source; their conditions may differ.
# How the values were obtained:
# [1] = system: LPS induced acute lung inflammation; assay: Example 1a: mouse model of lung inflammation (FIGS. 3-6, Table 4); assay type: in vivo, mice; conditions: for Alveolar lumen area (25%; 75%) / Partition thickness Me (25%; 75%): + LPS, median; for protective / therapeutic effect compared to other deuterated PUFAs: preliminary data (not shown)
# Method: FIGS. 3-6 Groups of female (f) and male (m) mice received a 6-week course of dietary (H) AA or a 6-week course of deuterated arachidonic acid (D6-ARA, 15 mg/day) followed by single intranasal administration of LPS.
# LPS treatment promotes inflammation through various mechanisms including secretion of pro-inflammatory cytokines, eicosanoids and induction of ROS. Following induction by the intranasal administration of LPS, an acute lung inflammation quickly follows. […] Such a pronounced inflammatory infiltration of the interalveolar septa contributed to their destruction and more frequent formation of emphysema foci in this group. […] (See FIGS. 3-6.)
# The degree of alveolar lumen area changes in both groups of animals depended on gender. […]
# healthy mice = conditions: mouse, in vivo
# Method: (§1) Mouse diet was from Research Diets (New Brunswick, NJ) based on fat-free AIN-93G. Fat was added at 11.3% by weight total fat and 0.25% either normal H-AA or D-AA respectively (Table 5).
# Male and Female BALB/c and C57BL/6 mice were provided with standard environmental conditions i.e., 22±1° C., 55±5% humidity and 12 h light/dark cycle with free food and water access. At the age of six weeks, animals were split into 8 groups (n=160 total, 20 of each gender) and were continuously fed ad libitum on the diet containing either H-AA or D-AA for 2, 4, 6 or 8 weeks at the daily rate of ca. 5 g of diet per mouse for the duration of the study. The other two groups of animals (n=40, 20 of each gender) received neither PUFA-enriched diets nor LPS served as controls. The body weight and food intake were measured once a week. After completing the appropriate diet course, half of the mice in each group (10 females and 10 males) (i) underwent the procedure of bronchoalveolar lavage (BAL) to accomplish cytological smears, (ii) were subjected to tissue harvesting and collection of colon contents (after humane euthanasia with lethal dose of sodium thiopental, 100 mg/kg intravenously). On the ninth week of this diet course, the other half of the group was administered 1 mg/kg of intranasal (IN) LPS from Escherichia coli O111:B4 (Sigma Aldrich) 24 hours prior to BAL and subsequent euthanasia. 40 D-AA fed animals (20 males, 20 females) were switched to the H-AA diet for washout experiments. […]
# Lung, stomach and colon samples were fixed with 4% formaldehyde (freshly prepared from paraformaldehyde), paraffin embedded and cut into 2-4 μm sections. For routine histology, all fixed tissue sections were stained with hematoxylin-eosin (H&E). All slides were evaluated at 10 fields each using a Genetic Pro Bino light microscope (A) and photographed with a digital camera (Delta Optical). Stomach and colon tissue sections were analyzed for signs of active and chronic inflammation, formation of lymph follicles, and hyperplasia of epithelial cells. The severity of lung injury was scored according to lung pathological changes, including interalveolar and perivascular hemorrhages, peri-vascular and peribronchial infiltration, perivascular edema, thickness of alveolar wall, alveolar space value, and emphysematous transformations. Lung tissue samples were additionally stained with commercially available Martius Scarlet Blue (MSB) stain kit (Avantik, USA) for fibrin visualization. The presence of homogeneous fibrin masses of yellow, pink or red color in the lung blood vessels were interpreted as thrombotic masses. […]
# Cell free BAL fluid supernatants as well as colon tissue samples were analyzed using commercially available Mouse IL-1B ELISA Kit (R&D systems, Lot P265854, USA) and the Biotek ELx-808 microplate reader (Biotek, USA) according to the instructions recommended by the manufacturer).
# [2] = system: LPS-induced acute lung injury; assay: Example 5: response to intranasal LPS in mice fed AA diets (ALI model); assay type: in vivo, BALB/c and C57BL/6 mice; conditions: for LPS-induced perivascular edema as measured by alveolar wall thickness: 6 weeks diet, versus H-AA
# Method: as §1
# Male and Female BALB/c and C57BL/6 mice were provided with standard environmental conditions i.e., 22±1° C., 55±5% humidity and 12 h light/dark cycle with free food and water access. At the age of six weeks, animals were split into 8 groups (n=160 total, 20 of each gender) and were continuously fed ad libitum on the diet containing either H-AA or D-AA for 2, 4, 6 or 8 weeks at the daily rate of ca. 5 g of diet per mouse for the duration of the study. The other two groups of animals (n=40, 20 of each gender) received neither PUFA-enriched diets nor LPS served as controls. The body weight and food intake were measured once a week. After completing the appropriate diet course, half of the mice in each group (10 females and 10 males) (i) underwent the procedure of bronchoalveolar lavage (BAL) to accomplish cytological smears, (ii) were subjected to tissue harvesting and collection of colon contents (after humane euthanasia with lethal dose of sodium thiopental, 100 mg/kg intravenously). On the ninth week of this diet course, the other half of the group was administered 1 mg/kg of intranasal (IN) LPS from Escherichia coli O111:B4 (Sigma Aldrich) 24 hours prior to BAL and subsequent euthanasia. 40 D-AA fed animals (20 males, 20 females) were switched to the H-AA diet for washout experiments.
# Cell differential counts were performed on smear slides from resuspended cell pellets of BAL, using commercially available May-Grünwald-Giemsa staining kits. All slides were evaluated in a light microscope (Optec BK5000) at ×200 magnification. These cell counts such as lymphocytes, neutrophils, plasmacytes and macrophages were obtained from 10 fields of each slide.
# Lung, stomach and colon samples were fixed with 4% formaldehyde (freshly prepared from paraformaldehyde), paraffin embedded and cut into 2-4 μm sections. For routine histology, all fixed tissue sections were stained with hematoxylin-eosin (H&E). All slides were evaluated at 10 fields each using a Genetic Pro Bino light microscope (A) and photographed with a digital camera (Delta Optical). Stomach and colon tissue sections were analyzed for signs of active and chronic inflammation, formation of lymph follicles, and hyperplasia of epithelial cells. The severity of lung injury was scored according to lung pathological changes, including interalveolar and perivascular hemorrhages, peri-vascular and peribronchial infiltration, perivascular edema, thickness of alveolar wall, alveolar space value, and emphysematous transformations. Lung tissue samples were additionally stained with commercially available Martius Scarlet Blue (MSB) stain kit (Avantik, USA) for fibrin visualization. The presence of homogeneous fibrin masses of yellow, pink or red color in the lung blood vessels were interpreted as thrombotic masses.
# We challenged mice fed AA-diets for 6 weeks using LPS treatment. […] Perivascular edema, signs of thrombosis, alveolar wall thickening, irregular distribution of air spaces, and focal areas of alveolar hemorrhage were also observed. We preferred intranasal administration to the more extreme intratracheal route that induces IL-1β which in turn amplifies inflammation making it difficult to distinguish between the early and late consequences of the LPS challenge. Indeed, 24 hours after intranasal administration of LPS at a dose of 1 mg/kg, there was no significant increase in the IL-1B content in BAL fluid or colon homogenates compared to animals not treated with LPS regardless of type or duration of the diets. Intranasal LPS 24 hours post administration increased neutrophils in BAL fluid in all treated groups regardless of gender or form of AA diets.
# [3] = 6 or 8 weeks diet, compared to H-AA
compound,measurement,setting,value
"[2H]C([2H])(/C=C\CCCCC)/C=C\C([2H])([2H])/C=C\C([2H])([2H])/C=C\CCCC(=O)O [D-AA, 7,7,10,10,13,13-D6-arachidonic acid]",alveolar lumen area and thickness versus controls,"[1]; 6-week course, 15 mg/day, then single intranasal LPS",consistent with controls
same,Alveolar lumen area (25%; 75%),[1]; females,57.4 μm^2
same,Partition thickness Me (25%; 75%),[1]; females,3.6 µm
same,Alveolar lumen area (25%; 75%),[1]; males,112.1 μm^2
same,Partition thickness Me (25%; 75%),[1]; males,5.55 µm
same,protective / therapeutic effect compared to other deuterated PUFAs,[1],best protective effect
same,protective / therapeutic effect compared to other deuterated PUFAs,[1]; listed as D6-AA,better therapeutic effect
same,alveolar spaces,healthy mice,No relevant changes
same,"average thickness of interalveolar septa, H-AA versus D-AA",healthy mice,did not significantly differ
same,tolerability,healthy mice,well tolerated without apparent adverse reactions
same,LPS-induced interalveolar septa / wall thickening (in words),"[2]; 6-week diet, then single intranasal LPS",greater protective action
same,alveolar spaces and thickness of interalveolar walls,[2]; [3],improved
same,endotoxin-induced peribronchial infiltration,[2]; [3],significantly decreased
same,"LPS-induced lung tissue damage, inflammation and emphysema (in words)",[2]; dietary consumption prior to LPS exposure,substantially mitigated; also recorded: substantially reduced
same,LPS-induced perivascular edema as measured by alveolar wall thickness,[2]; female mice,almost negligible
same,LPS-induced perivascular edema as measured by alveolar wall thickness,[2]; male mice,significantly milder effect
same,"inflammatory cell types in BAL, H-AA versus D-AA",[2]; regardless of gender and LPS treatment,No statistically significant differences
